Assays:
Assay in all cases: relative viability (nuclei count vs DMSO), 5 days (fraction); higher = more cells survive
[1] = system: 201T
Method in brief: (§1)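 Relative viability is defined as nuclei in treated wells over nuclei in vehicle wells. Duplicate plates were run and medians reported. Lung cancer cell lines in 1536-well plates were dosed by pin tool one day after seeding, with one drug or with a fixed anchor-drug dose plus five library-drug doses (not always all listed) in √10 steps, and nuclei were counted after 5 days.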

[2] = system: BEN
Method in brief: as §1

[3] = system: COR-L 105
Method in brief: as §1

[4] = system: EKVX
Method in brief: as §1

[5] = system: EPLC-272H
Method in brief: as §1

[6] = system: H3255
Method in brief: as §1

[7] = system: HCC-44
Method in brief: as §1

[8] = system: HCC-827
Method in brief: as §1

[9] = system: HOP-62
Method in brief: as §1

[10] = system: LCLC-97TM1
Method in brief: as §1

[11] = system: LOU-NH91
Method in brief: as §1

[12] = system: LU99A
Method in brief: as §1

[13] = system: NCI-H1395
Method in brief: as §1

[14] = system: NCI-H1437
Method in brief: as §1

[15] = system: NCI-H1666
Method in brief: as §1

[16] = system: NCI-H1975
Method in brief: as §1

[17] = system: NCI-H2085
Method in brief: as §1

[18] = system: NCI-H2087
Method in brief: as §1

[19] = system: NCI-H2126
Method in brief: as §1

[20] = system: NCI-H2342
Method in brief: as §1

[21] = system: NCI-H358
Method in brief: as §1

[22] = system: NCI-H647
Method in brief: as §1

[23] = system: PC-3 [JPC-3]
Method in brief: as §1

[24] = system: SW 1573
Method in brief: as §1

COc1cc(N2CCC(C(N)=O)CC2)ccc1Nc1nc(N)c(Cl)c(Nc2ccccc2S(=O)(=O)C(C)C)n1 [HG-5-88-01] + O=C(CCCCCCC(=O)Nc1ccccc1)NO [Vorinostat] (partner 1 µM)
relative viability ([1]; first compound 0.04 µM): 0.984 | relative viability ([1]; first compound 0.1265 µM): 0.94 | relative viability ([1]; first compound 1.265 µM): 0.883 | relative viability ([1]; first compound 4 µM): 1.11 | relative viability ([2]; first compound 0.04 µM): 0.555 | relative viability ([2]; first compound 0.1265 µM): 0.624 | relative viability ([2]; first compound 0.4 µM): 0.591 | relative viability ([2]; first compound 1.265 µM): 0.552 | relative viability ([2]; first compound 4 µM): 0.532 | relative viability ([3]; first compound 0.04 µM): 0.849 | relative viability ([3]; first compound 0.1265 µM): 0.722 | relative viability ([3]; first compound 0.4 µM): 0.847 | relative viability ([3]; first compound 1.265 µM): 0.639 | relative viability ([3]; first compound 4 µM): 0.59 | relative viability ([4]; first compound 0.04 µM): 0.789 | relative viability ([4]; first compound 0.1265 µM): 0.775 | relative viability ([4]; first compound 0.4 µM): 0.712 | relative viability ([4]; first compound 4 µM): 0.63 | relative viability ([5]; first compound 0.04 µM): 0.497 | relative viability ([5]; first compound 0.1265 µM): 0.606 | relative viability ([5]; first compound 0.4 µM): 0.6 | relative viability ([5]; first compound 1.265 µM): 0.503 | relative viability ([5]; first compound 4 µM): 0.116 | relative viability ([6]; first compound 0.04 µM): 0.77 | relative viability ([6]; first compound 0.1265 µM): 0.907 | relative viability ([6]; first compound 0.4 µM): 0.729 | relative viability ([6]; first compound 4 µM): 0.741 | relative viability ([7]; first compound 0.04 µM): 1.07 | relative viability ([7]; first compound 0.1265 µM): 1.14 | relative viability ([7]; first compound 0.4 µM): 1.05 | relative viability ([7]; first compound 1.265 µM): 1.08 | relative viability ([7]; first compound 4 µM): 1.14 | relative viability ([8]; first compound 0.04 µM): 0.829 | relative viability ([8]; first compound 0.1265 µM): 0.807 | relative viability ([8]; first compound 0.4 µM): 0.87 | relative viability ([8]; first compound 1.265 µM): 0.335 | relative viability ([8]; first compound 4 µM): 0.235 | relative viability ([9]; first compound 0.04 µM): 0.579 | relative viability ([9]; first compound 0.1265 µM): 0.799 | relative viability ([9]; first compound 0.4 µM): 0.611 | relative viability ([9]; first compound 1.265 µM): 0.728 | relative viability ([9]; first compound 4 µM): 0.668 | relative viability ([10]; first compound 0.04 µM): 0.75 | relative viability ([10]; first compound 0.1265 µM): 0.757 | relative viability ([10]; first compound 0.4 µM): 0.62 | relative viability ([10]; first compound 1.265 µM): 0.645 | relative viability ([10]; first compound 4 µM): 0.126 | relative viability ([11]; first compound 0.04 µM): 0.869 | relative viability ([11]; first compound 0.1265 µM): 0.823 | relative viability ([11]; first compound 0.4 µM): 0.723 | relative viability ([11]; first compound 1.265 µM): 0.508 | relative viability ([11]; first compound 4 µM): 0.469 | relative viability ([12]; first compound 0.04 µM): 0.442 | relative viability ([12]; first compound 0.1265 µM): 0.454 | relative viability ([12]; first compound 0.4 µM): 0.522 | relative viability ([12]; first compound 1.265 µM): 0.55 | relative viability ([12]; first compound 4 µM): 0.436 | relative viability ([13]; first compound 0.04 µM): 0.69 | relative viability ([13]; first compound 0.1265 µM): 0.681 | relative viability ([13]; first compound 0.4 µM): 0.733 | relative viability ([13]; first compound 1.265 µM): 0.832 | relative viability ([13]; first compound 4 µM): 0.597 | relative viability ([14]; first compound 0.04 µM): 0.899 | relative viability ([14]; first compound 0.1265 µM): 0.897 | relative viability ([14]; first compound 0.4 µM): 0.645 | relative viability ([14]; first compound 1.265 µM): 0.78 | relative viability ([14]; first compound 4 µM): 0.613 | relative viability ([15]; first compound 0.04 µM): 0.984 | relative viability ([15]; first compound 0.1265 µM): 1 | relative viability ([15]; first compound 0.4 µM): 0.975 | relative viability ([15]; first compound 1.265 µM): 0.92 | relative viability ([15]; first compound 4 µM): 0.828 | relative viability ([16]; first compound 0.04 µM): 0.734 | relative viability ([16]; first compound 0.1265 µM): 0.711 | relative viability ([16]; first compound 0.4 µM): 0.689 | relative viability ([16]; first compound 1.265 µM): 0.612 | relative viability ([16]; first compound 4 µM): 0.35 | relative viability ([17]; first compound 0.04 µM): 0.825 | relative viability ([17]; first compound 0.1265 µM): 0.846 | relative viability ([17]; first compound 0.4 µM): 0.729 | relative viability ([17]; first compound 1.265 µM): 0.791 | relative viability ([17]; first compound 4 µM): 0.758 | relative viability ([18]; first compound 0.04 µM): 0.74 | relative viability ([18]; first compound 0.1265 µM): 0.692 | relative viability ([18]; first compound 0.4 µM): 0.592 | relative viability ([18]; first compound 1.265 µM): 0.928 | relative viability ([18]; first compound 4 µM): 0.76 | relative viability ([19]; first compound 0.04 µM): 0.653 | relative viability ([19]; first compound 0.1265 µM): 0.813 | relative viability ([19]; first compound 0.4 µM): 0.713 | relative viability ([19]; first compound 1.265 µM): 0.594 | relative viability ([19]; first compound 4 µM): 0.456 | relative viability ([20]; first compound 0.04 µM): 0.654 | relative viability ([20]; first compound 0.1265 µM): 0.961 | relative viability ([20]; first compound 0.4 µM): 0.737 | relative viability ([20]; first compound 4 µM): 0.945 | relative viability ([21]; first compound 0.04 µM): 0.666 | relative viability ([21]; first compound 0.1265 µM): 0.602 | relative viability ([21]; first compound 0.4 µM): 0.544 | relative viability ([21]; first compound 1.265 µM): 0.155 | relative viability ([21]; first compound 4 µM): 0.182 | relative viability ([22]; first compound 0.04 µM): 0.522 | relative viability ([22]; first compound 0.1265 µM): 0.813 | relative viability ([22]; first compound 1.265 µM): 0.774 | relative viability ([22]; first compound 4 µM): 0.86 | relative viability ([23]; first compound 0.04 µM): 0.879 | relative viability ([23]; first compound 0.1265 µM): 0.756 | relative viability ([23]; first compound 0.4 µM): 0.58 | relative viability ([23]; first compound 1.265 µM): 0.724 | relative viability ([23]; first compound 4 µM): 0.303 | relative viability ([24]; first compound 0.04 µM): 0.657 | relative viability ([24]; first compound 0.1265 µM): 0.896 | relative viability ([24]; first compound 0.4 µM): 0.816 | relative viability ([24]; first compound 1.265 µM): 0.755 | relative viability ([24]; first compound 4 µM): 0.851

From the supplement of paper PMC10307832
